# Tests used:
# Type in all cases: biochemical
# [1] = target: T1, asparaginase (AnsA; printed AsnA in the results, asparaginase 1) (Escherichia coli, UniProt P0A962); experiment: HPLC of urinary amino acids treated with purified enzyme
# T1 construct: N-terminal His-tagged protein
# T1 sequence (P0A962 1-338): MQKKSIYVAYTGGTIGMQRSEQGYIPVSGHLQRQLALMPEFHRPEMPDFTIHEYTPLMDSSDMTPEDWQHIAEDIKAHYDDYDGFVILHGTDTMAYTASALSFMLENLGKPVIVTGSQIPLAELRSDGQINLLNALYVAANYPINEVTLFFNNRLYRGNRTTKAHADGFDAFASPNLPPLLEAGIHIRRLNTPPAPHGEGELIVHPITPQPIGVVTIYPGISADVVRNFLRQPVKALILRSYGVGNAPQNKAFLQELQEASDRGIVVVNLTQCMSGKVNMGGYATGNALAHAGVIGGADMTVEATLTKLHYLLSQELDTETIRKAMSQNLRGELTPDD
# [2] = target: T2, D-serine dehydratase (Dsd1p) (Saccharomyces cerevisiae, UniProt P53095); experiment: HPLC and LC-ESI-MS of urinary amino acid degradation by purified enzyme
# T2 construct: gene DSD1; N-terminal His-tagged protein
# T2 sequence (P53095 1-428): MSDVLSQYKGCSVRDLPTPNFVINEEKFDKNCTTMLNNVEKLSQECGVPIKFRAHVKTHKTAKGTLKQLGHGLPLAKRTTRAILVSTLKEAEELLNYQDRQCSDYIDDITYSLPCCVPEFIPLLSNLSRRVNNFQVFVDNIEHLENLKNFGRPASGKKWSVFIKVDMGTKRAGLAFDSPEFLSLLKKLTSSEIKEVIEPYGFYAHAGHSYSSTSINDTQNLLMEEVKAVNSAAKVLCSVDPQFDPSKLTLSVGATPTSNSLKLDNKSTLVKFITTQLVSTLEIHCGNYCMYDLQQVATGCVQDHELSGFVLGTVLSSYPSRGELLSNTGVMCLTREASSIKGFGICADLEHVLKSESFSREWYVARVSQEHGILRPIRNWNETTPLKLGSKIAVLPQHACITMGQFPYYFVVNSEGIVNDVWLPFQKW
# [3] = target: T3, serine racemase (mouse SR) (Mus musculus, UniProt Q9QZX7); experiment: LDH-coupled L-Ser dehydration assay, steady-state kinetics
# T3 construct: gene Srr; N-terminal His-tag, recombinant from E. coli
# T3 sequence (Q9QZX7 1-339): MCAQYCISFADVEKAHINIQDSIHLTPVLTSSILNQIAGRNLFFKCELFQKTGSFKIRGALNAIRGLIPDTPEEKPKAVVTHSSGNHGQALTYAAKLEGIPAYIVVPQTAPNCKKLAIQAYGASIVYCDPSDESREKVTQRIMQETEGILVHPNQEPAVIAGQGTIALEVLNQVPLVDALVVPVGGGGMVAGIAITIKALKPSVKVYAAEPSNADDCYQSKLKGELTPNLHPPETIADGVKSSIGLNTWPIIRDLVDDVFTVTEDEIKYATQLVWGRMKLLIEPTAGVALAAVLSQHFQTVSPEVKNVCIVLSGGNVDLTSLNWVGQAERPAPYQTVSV
# [4] = target: T3, serine racemase (mouse SR); experiment: enzymatic resolution of racemic β-EHAsp by recombinant enzyme
# [5] = target: T4, asparagine synthase (AsnA) (Escherichia coli, UniProt P00963); experiment: preparative enzymatic amidation, HPLC
# T4 construct: N-terminal His-tagged protein
# T4 sequence (P00963 1-330): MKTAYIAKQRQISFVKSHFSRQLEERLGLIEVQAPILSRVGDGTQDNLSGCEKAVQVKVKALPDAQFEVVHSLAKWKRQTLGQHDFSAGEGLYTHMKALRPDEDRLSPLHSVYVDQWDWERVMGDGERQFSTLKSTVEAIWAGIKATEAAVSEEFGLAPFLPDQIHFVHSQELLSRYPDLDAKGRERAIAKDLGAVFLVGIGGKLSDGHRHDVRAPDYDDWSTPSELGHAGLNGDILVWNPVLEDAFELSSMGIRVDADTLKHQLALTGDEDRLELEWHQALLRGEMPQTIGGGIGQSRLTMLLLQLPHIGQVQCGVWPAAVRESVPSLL
compound,measurement,setting,value
"NC(=O)[C@H](O)[C@H](N)C(=O)O (stereo in doubt) [L-β-EHAsn, L-erythro-β-hydroxyasparagine]",HPLC of urinary amino acids treated with purified enzyme,[1],Urinary β-OH-Asn could be converted into the corresponding isomer of β-hydroxy aspartate (β-OH-Asp) using the E. coli asparaginase
same,HPLC and LC-ESI-MS of urinary amino acid degradation by purified enzyme,[2],"the urinary Dsd1p substrate was identified as the (2S, 3S)-isomer of β-OH-Asn (L-β-EHAsn)"
same,Ki,[3],40 ± 6 µM
N[C@@H](C(=O)O)[C@H](O)C(=O)O (racemic) [D-β-EHAsp],enzymatic resolution of racemic β-EHAsp by recombinant enzyme,[4],could efficiently eliminate D-β-EHAsp from the racemic mixture
N[C@H](C(=O)O)[C@@H](O)C(=O)O [L-β-EHAsp],"preparative enzymatic amidation, HPLC",[5],L-β-EHAsp was further converted to L-β-EHAsn by the action of E. coli AsnA

# — PMC8071972, “Urinary L-erythro-β-hydroxyasparagine—a novel serine racemase inhibitor and substrate of the Zn^2+-dependent D-serine dehydratase” (Bioscience Reports, 2021)
